This note sets out measurements from patent US20070135383A1, “Phospholipase inhibitors, including multi-valent phospholipase inhibitors, and use thereof, including as lumen-localized phospholipase inhibitors” (priority 2005, published 2007).

Data set [1] has as its target T1, human group 1B PLA2 (hps PLA2) (Homo sapiens, UniProt P04054).
T1 construct: made in house; host or cells: E. coli
Put plainly: Fluorimetric PPyrPM assay for group 1B PLA2 inhibition (Example 12). It is filed as biochemical. From the text: (§1) In this example, a fluorimetric assay procedure was used to evaluate the indole and indole-related compounds of the invention as inhibitors of group 1B phospholipase A2 (PLA2) from human, mouse and porcine. A description of this assay is found in articles: Leslie, C C and Gelb, M H (2004) Methods in Molecular Biology “Assaying phospholipase A2 activity”, 284:229-242; Singer, A G, et al. (2002) Journal of Biological Chemistry “Interfacial kinetic and binding properties of the complete set of human and mouse groups I, II, V, X, and XII secreted phospholipases A2”, 277:48535-48549, which are incorporated herein as references.
(§2) In general, this assay used a phosphatidylmethanol substrate with a pyrene fluorophore on the terminal end of the sn-2 fatty acyl chain. Without being bound by theory, close proximity of the pyrenes from neighboring phospholipids in a phospholipid vesicle caused the spectral properties to change relative to that of monomeric pyrene. Bovine serum albumin was present in the aqueous phase and captured the pyrene fatty acid when it is liberated from the glycerol backbone owing to the PLA2-catalyzed reaction. However, a potent inhibitor can inhibit the liberation of pyrene fatty acid from the glycerol backbone. […] The effect of a given inhibitor and inhibitor concentration on human, mouse and porcine phospholipase was determined.
(§3) Recombinant human and mouse group 1B PLA2 were cloned and expressed in E. coli as insoluble inclusion bodies. The inclusion bodies were isolated and purified by sonicating cell pellet in lysis buffer (50 mM Tris-HCl pH 7.0, 250 mM NaCl, 0.5% Triton 100), centrifugation at 12,000×g, and washing three times in washing buffer (20 mM Tris-HCl pH 7.0, 250 mM NaCl, 0.5% Triton 100). Then the inclusion bodies were dissolved in dissolving buffer (50 mM Tris-HCl pH 7.0, 250 mM NaCl, 6 M Guanidine-HCl, 1 mM DTT) and dialyzed four times against 10 volumes of refolding buffer (20 mM Tris-HCl pH 7.0, 250 mM NaCl, 0.5M Guanidine-HCl, 5% (w/w) Glycerol, 2 mM reduced glutathione and 0.4 mM oxidized glutathione) at 4° C. The correctly refolded proteins were concentrated using Amicon Stirred cell under nitrogen pressure (<70 psi) and dialyzed against 10 volumes of 50 mM Tris-HCl pH 7.0, 250 mM NaCl and 5% (w/w) glycerol. Human and mouse group 1B PLA2 were further purified by High S ion exchange and gel filtration columns.
(§4) The following reagents and equipments were obtained from commercial vendors: • 1. Porcine group 1B phospholipase A2 • 2. 1-hexadecanoyl-2-(1-pyrenedecanoyl)-sn-glycero-3-phosphomethanol (PPyrPM) • 3. Bovine serum albumin (BSA, fatty acid free) • 4. 2-Amino-2-(hydroxymethyl)-1,3-propanediol, hydrochloride (Tris-HCl) • 5. Calcium chloride • 6. Potassium chloride • 7. Solvents: DMSO, toluene, isopropanol, ethanol • 8. Molecular Devices SPECTRAmax microplate spectrofluorometer • 9. Costar 96 well black wall/clear bottom plate
(§5) The following reagents were prepared: • 10. PPyrPM stock solution (1 mg/ml) in toluene:isopropanol (1:1) • 11. ILY104 inhibitor stock solution (10 mM) in DMSO • 12. 3% (w/v) bovine serum albumin (BSA) • 13. Stock buffer: 50 mM Tris-HCl, pH 8.0, 50 mM KCl and 1 mM CaCl2
(§6) The following procedure was performed to evaluate the inhibitory potency of the evaluated compounds. • 14. An assay buffer was prepared by adding 3 ml 3% BSA to 47 ml stock buffer. • 15. Solution A was prepared by adding serially diluted inhibitors to the assay buffer. Inhibitors were three-fold diluted in stock buffer in a series of 8 from 15 uM. • 16. Solution B was prepared by adding human, mouse or porcine PLA2 to the assay buffer. This solution was prepared immediately before use to minimize enzyme activity loss. • 17. Solution C was prepared by adding 30 ul PPyrPM stock solution to 90 ul ethanol, and then all 120 ul of PPyrPM solution was transferred drop-wise over approximately 1 min to the continuously stirring 8.82 ml assay buffer to form a final concentration of 4.2 uM PPyrPM vesicle solution. • 18. […]

Data set [2] addresses T2, mouse group 1B PLA2 (mps PLA2) (Mus musculus, UniProt Q9Z0Y2).
T2 construct: made in house; host or cells: E. coli
The data set is described as above. It is filed as biochemical.
Excerpt: as §1, §2, §3, §4, §5, §6

In data set [3] the target is T3, porcine group 1B PLA2 (pps PLA2) (Sus scrofa, UniProt P00592).
T3 construct: purchased
T3 sequence (P00592 23-146): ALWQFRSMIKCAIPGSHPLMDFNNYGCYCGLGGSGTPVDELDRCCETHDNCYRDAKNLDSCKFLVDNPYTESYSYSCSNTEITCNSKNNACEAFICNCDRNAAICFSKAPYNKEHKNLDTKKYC
Described as above. It is filed as biochemical. The conditions noted are these: porcine pancreas secreted PLA2; for IC50: read-out: ILYPSA IC50 pps PLA2.
Excerpt: as §1, §2, §4, §5
The following procedure was performed to evaluate the inhibitory potency of the evaluated compounds. • 14. An assay buffer was prepared by adding 3 ml 3% BSA to 47 ml stock buffer. • 15. Solution A was prepared by adding serially diluted inhibitors to the assay buffer. Inhibitors were three-fold diluted in stock buffer in a series of 8 from 15 uM. • 16. Solution B was prepared by adding human, mouse or porcine PLA2 to the assay buffer. This solution was prepared immediately before use to minimize enzyme activity loss. • 17. Solution C was prepared by adding 30 ul PPyrPM stock solution to 90 ul ethanol, and then all 120 ul of PPyrPM solution was transferred drop-wise over approximately 1 min to the continuously stirring 8.82 ml assay buffer to form a final concentration of 4.2 uM PPyrPM vesicle solution. • 18. The SPECTRAmax microplate spectrofluorometer was set at 37° C. • 19. 100 ul of solution A was added to each inhibition assay well of a costar 96 well black wall/clear bottom plate • 20. 100 ul of solution B was added to each inhibition assay well of a costar 96 well black wall/clear bottom plate. • 21. 100 ul of solution C was added to each inhibition assay well of a costar 96 well black wall/clear bottom plate. • 22. The plate was incubated inside the spectrofluorometer chamber for 3 min. • 23. The fluorescence was read using an excitation of 342 nm and an emission of 395 nm.
Evaluated compounds were tested in duplicate and their values were averaged to plot the inhibition curve and calculate the IC50. Compared to uninhibited controls, lower fluorescent signal at an emission of 395 nm in test reactions evidenced inhibition of PLA2. […] Compounds initially found to be active were repeated to confirm their inhibitory activity. […]

A short description of data set [4]: Mouse pharmacokinetic study, IV vs oral (Example 18). The conditions noted are these: PO 30 mg/kg vs IV 3 mg/kg, serum by LC/MS/MS. It is filed as in vivo, male CD-1 mice. The protocol:
The plasma exposure of male CD-1 mice to indole and indole-related test articles (TAs) following intravenous (IV, 3 mg/kg) and oral (PO, 30 mg/kg) routes of administration was measured. This model was used to investigate the bioavailability of indole and indole-related TAs in mouse. Mice were selected for the study since they are an accepted species frequently used in pre-clinical evaluation of drugs intended for human use.
Male CD-1 mice (7-8 weeks old) were obtained from Charles River Laboratories (Wilmington, Mass.). Two groups (N=18 and 27) of male CD-1 mice were used for the study. Upon arrival, the animals were placed on Rodent Diet 5001 (Purina Mills, Inc., St. Louis, Mo.).
On study day (−1), indole and indole-related TAs were formulated for oral or IV dosing by mixing the formulation components with test article in the proportions described in Table 10.1. The components were mixed by vortexing and sonicating in a warming bath for 60 minutes. Animals were fasted overnight prior to start of the study. On study day (1), formulations were sonicated for an hour to make sure that no visible particles were present prior to dosing, or if present were evenly distributed in suspension. Formulated test article were stirred continuously during dosing.
All animals were weighed on study day (1) and the body weights were recorded and used for dose calculation. The animals were dosed by either PO or IV route as outlined in Table 10.2. Blood samples (0.5 mL) were collected at specified time intervals into labeled, yellow-capped Microtainer tubes. The tubes were centrifuged (8,000×g, 10 min). Serum was then pipetted off into labeled Eppendorf® tubes and frozen at −80° C. Clinical observations were recorded as needed.
Analysis of serum samples was performed by LC/MS/MS (Waters Quattro Premier, Milford, Mass.). Areas under curves (AUC) were calculated using Graphpad Prism Version 4. Bioavailability was calculated using the following equation: (Bioavailability)=(AUC0-t,oral/AUC0-t,iv)×(Doseiv/Doseoral)×100
where AUC0-t=total area under curve at the last measurable time point

The mark [5] stands for this setting: human pancreas secreted PLA2, read-out: ILYPSA IC50 hps PLA2.
[6] abbreviates: mouse pancreas secreted PLA2, read-out: ILYPSA IC50 mps PLA2.

Like-named read-outs stand apart in the source and are kept apart here.

T1 sequence (P04054 23-148): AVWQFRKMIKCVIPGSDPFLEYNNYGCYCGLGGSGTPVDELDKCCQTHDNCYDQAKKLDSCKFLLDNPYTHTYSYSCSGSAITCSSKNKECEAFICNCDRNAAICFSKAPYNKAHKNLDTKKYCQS
T2 sequence (Q9Z0Y2 23-146): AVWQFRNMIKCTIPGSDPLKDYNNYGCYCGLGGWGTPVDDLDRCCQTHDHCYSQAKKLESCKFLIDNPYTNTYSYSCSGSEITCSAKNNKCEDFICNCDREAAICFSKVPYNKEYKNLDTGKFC

As for `Cc1c(C(=O)C(N)=O)c2c(OCC(=O)O)cccc2n1CCCCCCCCCCCCSCCCCCCCCSCCCCCCCCCCCCn1c(C)c(C(=O)C(N)=O)c2c(OCC(=O)O)cccc21` [ILY-V-26, 2,2′-(1,1′-(12,12′-(Octane-1,8-diylbis(sulfanediyl))bis(dodecane-12,1-diyl))bis(3-(2-amino-2-oxoacetyl)-2-methyl-1H-indole-4,1-diyl))bis(oxy)diacetic acid], the IC50 was found to be 240 nM in data set [1] (setting [5]), 340 nM in data set [2] (setting [6]) and 260 nM in data set [3]. In addition, in data set [4] (male, CD-1, mouse), the bioavailability worked out at 0%.
As to `Cc1c(C(=O)C(N)=O)c2c(OCC(=O)NS(=O)(=O)CCCC(=O)O)cccc2n1Cc1ccccc1` [ILY-IV-40, 4-[2-(3-Aminooxalyl-1-benzyl-2-methyl-1H-indol-4-yloxy)-acetylsulfamoyl]-butyric acid], in data set [4], the “Bioavailability (%)” value came out at 0.50%.
As for `Cc1c(C(=O)C(N)=O)c2c(OCC(=O)O)nccc2n1Cc1ccccc1-c1ccccc1` [ILY-II-4, (3-Aminooxalyl-1-biphenyl-2-ylmethyl-2-methyl-1H-pyrrolo[3,2-c]pyridin-4-yloxy)-acetic acid], the IC50 in data set [1] was 80 nM; in data set [2] it was 70 nM; in data set [3], under 20 nM.
Take `Cc1c(C(=O)C(N)=O)c2c(OCC(=O)NS(C)(=O)=O)nccc2n1Cc1ccccc1` [ILY-II-7, 2-[1-Benzyl-4-(2-methanesulfonylamino-2-oxo-ethoxy)-2-methyl-1H-pyrrolo[3,2-c]pyridin-3-yl]-2-oxo-acetamide]: the IC50 in data set [1] (setting [5]) is 2070 nM; in data set [2] (setting [6]) it was 1050 nM; in data set [3], 40 nM.
`CCC(Oc1nccc2c1c(C(=O)C(N)=O)c(C)n2Cc1ccccc1)C(=O)O` (centres unmarked) [ILY-II-11, 2-(3-Aminooxalyl-1-benzyl-2-methyl-1H-pyrrolo[3,2-c]pyridin-4-yloxy)-butyric acid]: the IC50 in data set [1] was 480 nM; in data set [2], 30 nM; in data set [3] it was under 20 nM.
Regarding `CCC(Oc1cccc2c1c(C(=O)C(N)=O)c(C)n2Cc1ccccc1)C(=O)O` (centres unmarked) [ILY-IV-20, 2-(3-Aminooxalyl-1-benzyl-2-methyl-1H-indol-4-yloxy)-butyric acid], the IC50 in data set [1] was 180 nM; in data set [2] (setting [6]) it was under 20 nM; in data set [3], under 20 nM.
As to `Cc1c(C(=O)C(N)=O)c2c(OCC(=O)O)cccc2n1Cc1ccc2ccccc2c1` [ILY-V-9], the IC50 in data set [1] (setting [5]) was determined as 2110 nM; in data set [2] (setting [6]), 710 nM; in data set [3], 60 nM.
The matching figures for `Cc1c(C(=O)C(N)=O)c2c(OCC(=O)O)cccc2n1CCCCCCCCCCCCSCCCCCCCCCCCCn1c(C)c(C(=O)C(N)=O)c2c(OCC(=O)O)cccc21` [IL-V-29, 2,2′-(1,1′-(12,12′-thiobis(dodecane-12,1-diyl))bis(3-(2-amino-2-oxoacetyl)-2-methyl-1H-indole-4,1-diyl))bis(oxy)diacetic acid]: 460 nM, 790 nM and 530 nM.
Taken in the same sequence, the figures for `Cc1ccc(S(=O)(=O)NC(=O)COc2cccc3c2c(C(=O)C(N)=O)c(C)n3Cc2ccccc2)cc1` [ILY-IV-26, 1-Benzyl-2-methyl-4-p-toluenesulfonamidoylmethyloxy-1H-indol-3-glyoxylamide] were over 5000 nM, 3090 nM and 80 nM.
In the case of `Cc1c(C(=O)C(N)=O)c2c(OC(F)(C(=O)O)C(F)(F)Br)cccc2n1Cc1ccccc1` (centres unmarked) [ILY-IV-55, 2-(3-(2-amino-2-oxoacetyl)-1-benzyl-2-methyl-1H-indol-4-yloxy)-3-bromo-2,3,3-trifluoropropanoic acid], the inhibition at 15 µM in data set [1] (read-out: ILYPSA % inhibition at 15 μM hps PLA2, 15 μM, human pancreas secreted PLA2) came out at 34%; in data set [2] (read-out: ILYPSA % inhibition at 15 μM mps PLA2, 15 μM, mouse pancreas secreted PLA2), 42.6%; in data set [3] (read-out: ILYPSA % inhibition at 15 μM pps PLA2, 15 μM), 74.5%.
